Data as given in patent publication US20250215012A1, “IKZF2 DEGRADERS AND USES THEREOF” (REGENTS OF THE UNIVERSITY OF MICHIGAN, priority 2022, published 2025).
Like-named read-outs stand apart in the source and are kept apart here.

Biological target: IKZF2 (Homo sapiens (Human), UniProt Q96SW2+Q9UKS7)
Experiment: IKZF2 HiBiT Assay (Jurkat-IKZF2-HiBiT cell line)
Format: cell-based
Conditions: for DC50: read-out: HiBit assay degradation analysis DC50; for Dmax: read-out: HiBit assay degradation analysis Dmax
How it was run: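 Jurkat cells carrying HiBiT-tagged IKZF2 were exposed to serially diluted compound for 24 h at 37 °C. Remaining IKZF2 was measured by Nano-Glo HiBiT lytic luminescence after 10-20 min at room temperature. Signal was normalized to DMSO, and IC50 came from a four-parameter variable-slope fit.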

[1] = Jurkat-IKZF2-HiBiT cells, 24 hours

Chain of IKZF2 (Q9UKS7 whole entry): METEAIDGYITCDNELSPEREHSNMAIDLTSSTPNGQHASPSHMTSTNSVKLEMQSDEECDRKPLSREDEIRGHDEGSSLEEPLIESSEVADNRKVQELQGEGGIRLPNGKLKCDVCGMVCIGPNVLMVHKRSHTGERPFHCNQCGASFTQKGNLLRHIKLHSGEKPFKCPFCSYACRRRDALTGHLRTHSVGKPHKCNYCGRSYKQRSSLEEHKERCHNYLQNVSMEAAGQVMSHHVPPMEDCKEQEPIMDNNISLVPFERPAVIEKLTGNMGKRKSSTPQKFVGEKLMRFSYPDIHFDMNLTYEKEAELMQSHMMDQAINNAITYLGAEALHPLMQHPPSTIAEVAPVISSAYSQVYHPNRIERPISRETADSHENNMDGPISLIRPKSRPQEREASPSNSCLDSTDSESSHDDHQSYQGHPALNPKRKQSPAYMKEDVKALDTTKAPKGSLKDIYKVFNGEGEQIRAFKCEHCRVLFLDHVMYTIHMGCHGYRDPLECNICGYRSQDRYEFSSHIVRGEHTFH
Chain of IKZF2 (Q96SW2 whole entry): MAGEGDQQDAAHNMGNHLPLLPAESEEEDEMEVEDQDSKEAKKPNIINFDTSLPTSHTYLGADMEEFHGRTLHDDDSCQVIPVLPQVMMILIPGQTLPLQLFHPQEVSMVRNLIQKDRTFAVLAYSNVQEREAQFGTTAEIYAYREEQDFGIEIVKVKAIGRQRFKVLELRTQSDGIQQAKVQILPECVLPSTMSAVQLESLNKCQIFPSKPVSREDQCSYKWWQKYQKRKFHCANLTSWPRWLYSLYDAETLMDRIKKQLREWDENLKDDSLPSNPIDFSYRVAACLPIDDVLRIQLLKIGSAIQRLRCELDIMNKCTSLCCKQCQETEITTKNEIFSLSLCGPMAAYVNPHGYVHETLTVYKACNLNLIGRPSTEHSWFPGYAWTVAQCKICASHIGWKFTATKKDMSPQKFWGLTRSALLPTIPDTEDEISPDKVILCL
Chain of IKZF2 (Q16531 whole entry partner): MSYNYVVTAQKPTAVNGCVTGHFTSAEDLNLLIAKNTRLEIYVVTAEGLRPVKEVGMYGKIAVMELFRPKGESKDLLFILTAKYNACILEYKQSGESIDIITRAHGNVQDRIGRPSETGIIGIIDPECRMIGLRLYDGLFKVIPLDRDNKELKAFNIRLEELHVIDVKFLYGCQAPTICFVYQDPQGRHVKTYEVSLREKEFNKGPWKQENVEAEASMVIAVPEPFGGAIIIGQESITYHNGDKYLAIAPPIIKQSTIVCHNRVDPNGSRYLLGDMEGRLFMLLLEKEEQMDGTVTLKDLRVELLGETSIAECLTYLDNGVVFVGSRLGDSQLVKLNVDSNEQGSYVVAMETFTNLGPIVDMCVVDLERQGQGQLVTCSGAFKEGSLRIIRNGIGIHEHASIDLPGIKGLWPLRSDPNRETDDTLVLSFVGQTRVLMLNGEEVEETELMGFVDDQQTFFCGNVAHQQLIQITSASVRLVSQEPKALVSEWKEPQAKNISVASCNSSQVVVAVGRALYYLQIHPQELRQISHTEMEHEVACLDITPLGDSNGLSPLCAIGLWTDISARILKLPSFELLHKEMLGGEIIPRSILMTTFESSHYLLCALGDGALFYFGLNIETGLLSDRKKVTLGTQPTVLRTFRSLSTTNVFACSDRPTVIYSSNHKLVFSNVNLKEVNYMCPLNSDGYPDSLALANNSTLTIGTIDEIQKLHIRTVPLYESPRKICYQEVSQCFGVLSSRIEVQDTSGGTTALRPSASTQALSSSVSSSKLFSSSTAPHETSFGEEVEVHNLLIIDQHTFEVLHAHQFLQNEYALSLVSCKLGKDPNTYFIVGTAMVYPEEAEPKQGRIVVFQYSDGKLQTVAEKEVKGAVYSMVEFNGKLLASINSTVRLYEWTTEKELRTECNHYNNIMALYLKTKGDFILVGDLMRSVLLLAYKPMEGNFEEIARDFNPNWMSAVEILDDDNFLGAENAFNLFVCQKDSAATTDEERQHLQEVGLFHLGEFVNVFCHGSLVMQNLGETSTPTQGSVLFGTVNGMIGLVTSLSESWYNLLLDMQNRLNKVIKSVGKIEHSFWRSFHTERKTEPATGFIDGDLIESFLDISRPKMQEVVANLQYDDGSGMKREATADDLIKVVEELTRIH

SMILES | DC50 [1] [nM] | Dmax [1] [%] | Dmax [%]
O=C1CCC(N2Cc3c(ccc4c3OCC43CCN(Cc4ccc(-n5cccn5)cc4)CC3)C2=O)C(=O)N1 (stereo not drawn) [Compound A222, 3-(1′-(4-(1H-pyrazol-1-yl)benzyl)-6-oxo-6,8-dihydro-2H,7H-spiro[furo[2,3-e]isoindole-3,4′-piperidin]-7-yl)piperidine-2,6-dione] | > 500 | 40 to 60 | –
COc1ccc(C(=O)Nc2cccc(CN3CCC4(CC3)COc3c4ccc4c3CN(C3CCC(=O)NC3=O)C4=O)c2)cc1 (stereo not drawn) [Compound A177, N-(3-((7-(2,6-dioxopiperidin-3-yl)-6-oxo-7,8-dihydro-2H,6H-spiro[furo[2,3-e]isoindole-3,4′-piperidin]-1′-yl)methyl)phenyl)-4-methoxybenzamide] | < 50 | > 80 | –
O=C1CC[C@H](N2Cc3c(ccc4c3OCC43CCN(C[C@H]4C[C@@H](Oc5ccc(F)cc5)C4)CC3)C2=O)C(=O)N1 [Compound A358, (S)-3-(1′-(((1s,3R)-3-(4-fluorophenoxy)cyclobutyl)methyl)-6-oxo-6,8-dihydro-2H,7H-spiro[furo[2,3-e]isoindole-3,4′-piperidin]-7-yl)piperidine-2,6-dione] | > 500 | 40 to 60 | –
Cn1ncc2cc(CN3CCC4(CC3)COc3c4ccc4c3CN(C3CCC(=O)NC3=O)C4=O)ccc21 (stereo not drawn) [Compound A217, 3-(1′-((1-methyl-1H-indazol-5-yl)methyl)-6-oxo-6,8-dihydro-2H,7H-spiro[furo[2,3-e]isoindole-3,4′-piperidin]-7-yl)piperidine-2,6-dione] | > 500 | < 40 | –
COCc1cccc(CN2CCC3(CC2)COc2c3ccc3c2CN(C2CCC(=O)NC2=O)C3=O)c1 (stereo not drawn) [Compound A112, 3-(1′-(3-(methoxymethyl)benzyl)-6-oxo-6,8-dihydro-2H,7H-spiro[furo[2,3-e]isoindole-3,4′-piperidin]-7-yl)piperidine-2,6-dione] | 200 to 500 | 60 to 80 | –
CC(C)(C)c1cccc(CN2CCC3(CC2)COc2c3ccc3c2CN(C2CCC(=O)NC2=O)C3=O)c1 (stereo not drawn) [Compound A88, 3-(1′-(3-(tert-butyl)benzyl)-6-oxo-6,8-dihydro-2H,7H-spiro[furo[2,3-e]isoindole-3,4′-piperidin]-7-yl)piperidine-2,6-dione] | > 500 | < 40 | –
O=C1CCC(N2Cc3c(ccc4c3OCC43CCN(Cc4cccc(C5CC5)c4)CC3)C2=O)C(=O)N1 (stereo not drawn) [Compound A204, 3-(1′-(3-cyclopropylbenzyl)-6-oxo-6,8-dihydro-2H,7H-spiro[furo[2,3-e]isoindole-3,4′-piperidin]-7-yl)piperidine-2,6-dione] | > 500 | 40 to 60 | –
O=C1CC[C@H](N2Cc3c(ccc4c3OCC43CCN(Cc4ccccc4)CC3)C2=O)C(=O)N1 [Compound A317, (S)-3-(1′-benzyl-6-oxo-6,8-dihydro-2H,7H-spiro[furo[2,3-e]isoindole-3,4′-piperidin]-7-yl)piperidine-2,6-dione] | 200 to 500 | 40 to 60 | –
Cn1cc2cc(CN3CCC4(CC3)COc3c4ccc4c3CN(C3CCC(=O)NC3=O)C4=O)ccc2n1 (stereo not drawn) [Compound A68, 3-(1′-((2-methyl-2H-indazol-5-yl)methyl)-6-oxo-6,8-dihydro-2H,7H-spiro[furo[2,3-e]isoindole-3,4′-piperidin]-7-yl)piperidine-2,6-dione] | > 500 | 40 to 60 | –
Cc1ccc(C(=O)Nc2cccc(CN3CCC4(CC3)COc3c4ccc4c3CN(C3CCC(=O)NC3=O)C4=O)c2)cc1 (stereo not drawn) [Compound A179, N-(3-((7-(2,6-dioxopiperidin-3-yl)-6-oxo-7,8-dihydro-2H,6H-spiro[furo[2,3-e]isoindole-3,4′-piperidin]-1′-yl)methyl)phenyl)-4-methylbenzamide] | < 50 | – | > 80
Cn1cc(-c2ccc(CN3CCC4(CC3)COc3c4ccc4c3CN(C3CCC(=O)NC3=O)C4=O)s2)cn1 (stereo not drawn) [Compound A190, 3-(1′-((5-(1-methyl-1H-pyrazol-4-yl)thiophen-2-yl)methyl)-6-oxo-6,8-dihydro-2H,7H-spiro[furo[2,3-e]isoindole-3,4′-piperidin]-7-yl)piperidine-2,6-dione] | > 500 | 40 to 60 | –
COc1ccccc1CN1CCC2(CC1)COc1c2ccc2c1CN(C1CCC(=O)NC1=O)C2=O (stereo not drawn) [Compound A215, 3-(1′-(2-methoxybenzyl)-6-oxo-6,8-dihydro-2H,7H-spiro[furo[2,3-e]isoindole-3,4′-piperidin]-7-yl)piperidine-2,6-dione] | 200 to 500 | 40 to 60 | –
O=C1CCC(N2Cc3c(ccc4c3OCC43CCN(Cc4cnn(Cc5ccccc5Cl)c4)CC3)C2=O)C(=O)N1 (stereo not drawn) [Compound A240, 3-(1′-((1-(2-chlorobenzyl)-1H-pyrazol-4-yl)methyl)-6-oxo-6,8-dihydro-2H,7H-spiro[furo[2,3-e]isoindole-3,4′-piperidin]-7-yl)piperidine-2,6-dione] | < 50 | 60 to 80 | –
O=C1CCC(N2Cc3c(ccc4c3OCC43CCN(Cc4ccnc5ccccc45)CC3)C2=O)C(=O)N1 (stereo not drawn) [Compound A44, 3-(6-oxo-1′-(quinolin-4-ylmethyl)-6,8-dihydro-2H,7H-spiro[furo[2,3-e]isoindole-3,4′-piperidin]-7-yl)piperidine-2,6-dione] | > 500 | < 40 | –
O=C1CC[C@H](N2Cc3c(ccc4c3OCC43CCN(Cc4ccn(-c5ccc(Cl)cc5)n4)CC3)C2=O)C(=O)N1 [Compound A315, (S)-3-(1′-((1-(4-chlorophenyl)-1H-pyrazol-3-yl)methyl)-6-oxo-6,8-dihydro-2H,7H-spiro[furo[2,3-e]isoindole-3,4′-piperidin]-7-yl)piperidine-2,6-dione] | 50 to 200 | 40 to 60 | –
O=C1CCC(N2Cc3c(ccc4c3OCC43CCN(Cc4cccc(-c5cn[nH]c5)c4)CC3)C2=O)C(=O)N1 (stereo not drawn) [Compound A104, 3-(1′-(3-(1H-pyrazol-4-yl)benzyl)-6-oxo-6,8-dihydro-2H,7H-spiro[furo[2,3-e]isoindole-3,4′-piperidin]-7-yl)piperidine-2,6-dione] | < 50 | > 80 | –
O=C1CCC(N2Cc3c(ccc4c3OCC43CCN(Cc4cccc5ncccc45)CC3)C2=O)C(=O)N1 (stereo not drawn) [Compound A38, 3-(6-oxo-1′-(quinolin-5-ylmethyl)-6,8-dihydro-2H,7H-spiro[furo[2,3-e]isoindole-3,4′-piperidin]-7-yl)piperidine-2,6-dione] | 50 to 200 | 60 to 80 | –
O=C1CCC(N2Cc3c(ccc4c3OCC43CCN(CC4CCOCC4)CC3)C2=O)C(=O)N1 (stereo not drawn) [Compound A20, 3-(6-oxo-1′-((tetrahydro-2H-pyran-4-yl)methyl)-6,8-dihydro-2H,7H-spiro[furo[2,3-e]isoindole-3,4′-piperidin]-7-yl)piperidine-2,6-dione] | > 500 | < 40 | –
Cn1ccc2cccc(CN3CCC4(CC3)COc3c4ccc4c3CN(C3CCC(=O)NC3=O)C4=O)c21 (stereo not drawn) [Compound A74, 3-(1′-((1-methyl-1H-indol-7-yl)methyl)-6-oxo-6,8-dihydro-2H,7H-spiro[furo[2,3-e]isoindole-3,4′-piperidin]-7-yl)piperidine-2,6-dione] | 50 to 200 | 60 to 80 | –
O=C1CC[C@H](N2Cc3c(ccc4c3OCC43CCN(Cc4ccc5cc[nH]c5c4)CC3)C2=O)C(=O)N1 [Compound A172, (S)-3-(1′-((1H-indol-6-yl)methyl)-6-oxo-6,8-dihydro-2H,7H-spiro[furo[2,3-e]isoindole-3,4′-piperidin]-7-yl)piperidine-2,6-dione] | < 50 | 60 to 80 | –
O=C1CCC(N2Cc3c(ccc4c3OCC43CCN(Cc4ccc(F)c5[nH]ncc45)CC3)C2=O)C(=O)N1 (stereo not drawn) [Compound A136, 3-(1′-((7-fluoro-1H-indazol-4-yl)methyl)-6-oxo-6,8-dihydro-2H,7H-spiro[furo[2,3-e]isoindole-3,4′-piperidin]-7-yl)piperidine-2,6-dione] | < 50 | 40 to 60 | –
Cn1cc(-c2cccc(CN3CCC4(CC3)CNc3c4ccc4c3CN(C3CCC(=O)NC3=O)C4=O)c2)cn1 (stereo not drawn) [Compound A309, 3-(1-(3-(1-methyl-1H-pyrazol-4-yl)benzyl)-6′-oxo-1′,2′,6′,8′-tetrahydro-7′H-spiro[piperidine-4,3′-pyrrolo[3,4-g]indol]-7′-yl)piperidine-2,6-dione] | > 500 | 40 to 60 | –
CC1(C)Cc2c(CN3CCC4(CC3)COc3c4ccc4c3CN(C3CCC(=O)NC3=O)C4=O)cccc2O1 (stereo not drawn) [Compound A326, 3-(1′-((2,2-dimethyl-2,3-dihydrobenzofuran-4-yl)methyl)-6-oxo-6,8-dihydro-2H,7H-spiro[furo[2,3-e]isoindole-3,4′-piperidin]-7-yl)piperidine-2,6-dione] | > 500 | 40 to 60 | –
O=C1CCC(N2Cc3c(ccc4c3OCC43CCN(Cc4cccc(C(=O)O)c4)CC3)C2=O)C(=O)N1 (stereo not drawn) [Compound A99, 3-((7-(2,6-dioxopiperidin-3-yl)-6-oxo-7,8-dihydro-2H,6H-spiro[furo[2,3-e]isoindole-3,4′-piperidin]-1′-yl)methyl)benzoic acid] | > 500 | < 40 | –
N#Cc1cccc(CN2CCC3(CC2)COc2c3ccc3c2CN(C2CCC(=O)NC2=O)C3=O)c1 (stereo not drawn) [Compound A219, 3-((7-(2,6-dioxopiperidin-3-yl)-6-oxo-7,8-dihydro-2H,6H-spiro[furo[2,3-e]isoindole-3,4′-piperidin]-1′-yl)methyl)benzonitrile] | 200 to 500 | 40 to 60 | –
O=C1CCC(N2Cc3c(ccc4c3OCCC43CCNCC3)C2=O)C(=O)N1 (stereo not drawn) [Compound A2, 3-(7′-oxo-2′,3′,7′,9′-tetrahydro-8′H-spiro[piperidine-4,4′-pyrano[2,3-e]isoindol]-8′-yl)piperidine-2,6-dione] | – | < 40 | –
